Source: ChEMBL document CHEMBL5614376, “Discovery of MT-1207: A Novel, Potent Multitarget Inhibitor as a Promising Clinical Candidate for the Treatment of Hypertension” (J Med Chem, 2024)
The source made the active and inactive calls. The rule behind the calls is not given here.

What was measured:
[1] = molecular target: T1, 5-hydroxytryptamine receptor 2A (Homo sapiens, UniProt P28223); assay: Displacement of [3H]Ketanserin from recombinant human 5-HT2A receptor extracted from CHO cell membrane at 100 nM incubated for 60 mins by radioligand binding assay relative to control; assay type: cell membranes
T1 sequence (P28223 whole entry): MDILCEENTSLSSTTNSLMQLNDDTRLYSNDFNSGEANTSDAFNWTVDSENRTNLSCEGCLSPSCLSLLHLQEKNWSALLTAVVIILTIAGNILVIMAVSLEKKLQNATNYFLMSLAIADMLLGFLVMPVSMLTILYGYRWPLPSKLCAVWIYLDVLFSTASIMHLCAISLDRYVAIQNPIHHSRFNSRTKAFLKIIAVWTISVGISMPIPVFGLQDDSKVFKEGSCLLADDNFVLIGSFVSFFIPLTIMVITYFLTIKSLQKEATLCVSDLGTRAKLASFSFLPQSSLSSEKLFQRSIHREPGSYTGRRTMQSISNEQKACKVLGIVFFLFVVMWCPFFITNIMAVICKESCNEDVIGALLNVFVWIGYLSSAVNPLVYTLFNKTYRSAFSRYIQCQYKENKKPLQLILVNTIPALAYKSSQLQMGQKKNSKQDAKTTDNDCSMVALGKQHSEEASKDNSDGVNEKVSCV

[2] = molecular target: T2, Alpha-1A adrenergic receptor (Homo sapiens) (UniProt P35348); assay: Displacement of [3H]prazosin from recombinant human alpha 1A adrenoceptor extracted from CHO cell membrane at 100 nM incubated for 60 mins by radioligand binding assay relative to control; assay type: cell membranes
T2 sequence (whole entry): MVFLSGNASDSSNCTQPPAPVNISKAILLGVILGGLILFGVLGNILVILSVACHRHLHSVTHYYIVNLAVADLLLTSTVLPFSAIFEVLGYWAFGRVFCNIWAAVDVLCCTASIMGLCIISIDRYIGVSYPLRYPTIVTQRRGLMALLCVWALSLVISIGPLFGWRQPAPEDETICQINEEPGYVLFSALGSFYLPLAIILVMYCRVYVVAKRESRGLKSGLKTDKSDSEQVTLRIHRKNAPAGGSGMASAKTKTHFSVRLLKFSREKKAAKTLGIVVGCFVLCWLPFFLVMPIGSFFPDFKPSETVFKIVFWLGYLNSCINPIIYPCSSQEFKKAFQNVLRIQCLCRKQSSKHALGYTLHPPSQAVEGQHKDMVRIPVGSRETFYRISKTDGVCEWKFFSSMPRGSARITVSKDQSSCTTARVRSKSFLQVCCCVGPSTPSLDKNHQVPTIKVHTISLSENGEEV

[3] = molecular target: T2, Alpha-1A adrenergic receptor (Homo sapiens); assay: Displacement of [3H]prazosin from recombinant human alpha 1A adrenoceptor extracted from CHO cell membrane at 10 nM incubated for 60 mins by radioligand binding assay relative to control; assay type: cell membranes
[4] = molecular target: T2, Alpha-1A adrenergic receptor (Homo sapiens); assay: Displacement of [3H]prazosin from recombinant human alpha 1A adrenoceptor extracted from CHO cell membrane at 1 nM incubated for 60 mins by radioligand binding assay relative to control; assay type: cell membranes
[5] = molecular target: T1, 5-hydroxytryptamine receptor 2A; assay: Displacement of [3H]Ketanserin from recombinant human 5-HT2A receptor extracted from CHO cell membrane at 10 nM incubated for 60 mins by radioligand binding assay relative to control; assay type: cell membranes
[6] = molecular target: T1, 5-hydroxytryptamine receptor 2A; assay: Displacement of [3H]Ketanserin from recombinant human 5-HT2A receptor extracted from CHO cell membrane at 1 nM incubated for 60 mins by radioligand binding assay relative to control; assay type: cell membranes
Rattus norvegicus [7] = assay: Effect on serum creatinine level in 2K2C renovascular hypertensive Sprague-Dawley rat model at 20 mg/kg, po measured after 9 weeks by biochemical analysis; assay type: functional, organism-based
Rattus norvegicus [8] = assay: Effect on serum urea level in 2K2C renovascular hypertensive Sprague-Dawley rat model at 20 mg/kg, po measured after 9 weeks by biochemical analysis; assay type: functional, organism-based
Rattus norvegicus [9] = assay: Antihypertensive activity in 2K2C renovascular hypertensive Sprague-Dawley rat model assessed as systolic blood pressure at 20 mg/kg, po measured after 9 weeks (Rvb ~ 202 mmHg); assay type: functional

Compound	inhibition ([2]; filed as antagonist) [%]	inhibition ([3]; filed as antagonist) [%]	inhibition [4] [%]	inhibition ([1]; filed as antagonist) [%]	inhibition [3] [%]	inhibition ([5]; filed as antagonist) [%]	inhibition ([4]; filed as antagonist) [%]	other results
COc1cccc(N2CCN(CCCCn3cnc4ccccc43)CC2)c1	95.6	55	-1.06	–	–	–	–	inhibition [1]: 13.1%
FC(F)(F)c1cccc(N2CCN(CCCCCn3nnc4ccccc43)CC2)c1	75.3	–	–	71.4	13	–	–	inhibition [5]: 7.37%
Clc1cccc(N2CCN(CCCCn3cnc4ccccc43)CC2)c1	98.5	71.6	15.4	67.2	–	–	–	inhibition [5]: -1.87%
Fc1ccc2c(C3CCN(CCCCn4cnc5ccccc54)CC3)noc2c1	100	100	–	96	–	81.9	80.7	inhibition [6]: -3.85%
c1ccc2c(c1)nnn2CCCN1CCN(c2nsc3ccccc23)CC1	96.4	82.6	–	98.5	–	89.4	44.5	inhibition [6]: 8.15%
Fc1ccc2c(N3CCN(CCCCn4nc5ccccc5n4)CC3)noc2c1	101	99	–	96.5	–	61.1	83.1	–
Fc1cccc(N2CCN(CCCCn3nnc4ccccc43)CC2)c1	91	46.6	-7.76	54	–	–	–	inhibition [5]: -2.88%
O=C(c1ccc(F)cc1)C1CCN(CCn2c(=O)[nH]c3ccccc3c2=O)CC1	–	–	–	–	–	89.6	–	inhibition ([6]; filed as antagonist): 41.2%
Fc1ccc2c(N3CCN(CCCn4nnc5ccccc54)CC3)noc2c1	95.3	86.2	–	95.8	–	80.9	46	–
FC(F)(F)c1cccc(N2CCN(CCCn3nc4ccccc4n3)CC2)c1	–	–	-8.07	44.7	-9.63	–	–	inhibition [2]: 20.7%
Fc1ccc2c(C3CCN(CCCCn4nnc5ccccc54)CC3)noc2c1	101	100	–	98.2	–	89.5	93.8	inhibition [6]: 39.9%
Fc1ccc2c(N3CCN(CCCn4nc5ccccc5n4)CC3)noc2c1	99.1	65.1	29.5	99.1	–	79.1	–	inhibition [6]: 5.91%
FC(F)(F)c1cccc(N2CCN(CCCn3nnc4ccccc43)CC2)c1	61.3	–	–	64.5	-2.01	–	–	inhibition [5]: -6.65%
c1ccc2c(c1)nnn2OCCCN1CCN(c2nsc3ccccc23)CC1	93.7	82.3	–	100	–	81.3	44.2	–
COc1cccc(OC)c1OCCNCC1COc2ccccc2O1 (stereo not drawn)	102	87	–	–	–	–	46.3	–
COc1ccccc1N1CCN(CCCOc2cccc(C)c2C)CC1	40.1	–	–	–	7.19	–	–	inhibition [1]: 37.7%
Fc1ccc2c(C3CCN(CCCCn4nc5ccccc5n4)CC3)noc2c1	99.9	99.9	–	98.9	–	82	83.4	inhibition [6]: -5.42%
FC(F)(F)c1cccc(N2CCN(CCCCn3cnc4ccccc43)CC2)c1	89.3	–	-1.42	–	36.4	–	–	inhibition [1]: 37.7%
COc1ccccc1N1CCN(CCCCn2cnc3ccccc32)CC1	86.9	–	-0.88	68.7	22.8	–	–	inhibition [5]: -4.99%
c1ccc(N2CCN(CCCCn3nnc4ccccc43)CC2)cc1	79.6	–	-9.51	–	35	–	–	inhibition [1]: 39.2%
FC(F)(F)c1cccc(N2CCN(CCn3nnc4ccccc43)CC2)c1	–	–	–	–	–	–	–	inhibition [1]: 18.9%; inhibition [2]: 3.42%
CCCCc1nc(Cl)c(CO)n1Cc1ccc(-c2ccccc2-c2nnn[nH]2)cc1 [LOSARTAN]	–	–	–	–	–	–	–	Activity (Rattus norvegicus [7]): Active; Activity (Rattus norvegicus [8]): Active; Activity (Rattus norvegicus [9]): 176 mmHg

Compound	inhibition ([2]; filed as antagonist) [%]	inhibition ([3]; filed as antagonist) [%]	inhibition [4] [%]	inhibition ([1]; filed as antagonist) [%]	inhibition [3] [%]	inhibition ([5]; filed as antagonist) [%]	inhibition ([4]; filed as antagonist) [%]	other results
Fc1ccc2c(C3CCN(CCCn4nnc5ccccc54)CC3)noc2c1	98.8	87.7	39.8	98.7	–	96.4	–	inhibition ([6]; filed as antagonist): 76.9%
FC(F)(F)c1cccc(N2CCN(CCCCn3nc4ccccc4n3)CC2)c1	53	–	-7.22	–	-1.54	–	–	inhibition [1]: 38.1%
c1ccc2c(c1)nnn2CCCCN1CCN(c2noc3ccccc23)CC1	100	99.2	–	88.8	–	–	85.9	inhibition [5]: 38.3%
FC(F)(F)c1cccc(N2CCN(CCCCCCn3nnc4ccccc43)CC2)c1	63.3	–	–	53.5	4.15	–	–	inhibition [5]: 11.3%; inhibition [6]: -9.54%
c1ccc2c(c1)ncn2CCCN1CCN(c2nsc3ccccc23)CC1	98	74.9	24.6	94	–	68.8	–	inhibition [6]: -1.8%
Fc1cccc(N2CCN(CCCCn3cnc4ccccc43)CC2)c1	80.1	–	-3.72	–	21.3	–	–	inhibition [1]: 1.87%
FC(F)(F)c1cccc(N2CCN(CCCCn3nnc4ccccc43)CC2)c1	72.5	–	-5.08	63.4	38	–	–	inhibition [5]: 0%
Fc1ccc2c(N3CCN(CCCCn4nnc5ccccc54)CC3)noc2c1	96.9	95	–	95.4	–	71.5	98.6	–
Clc1cccc(N2CCN(CCCCn3nnc4ccccc43)CC2)c1	97.4	74.2	5.9	77.6	–	–	–	inhibition [5]: 17.2%
Fc1ccc2c(C3CCN(CCCn4nc5ccccc5n4)CC3)noc2c1	99	83.2	28.9	98.3	–	98.7	–	inhibition ([6]; filed as antagonist): 79.7%
Fc1ccc2c(C3CCN(CCCn4cnc5ccccc54)CC3)noc2c1	99.9	97.5	–	94.2	–	76	69.7	inhibition [6]: 15.9%
Fc1ccc2c(N3CCN(CCCCn4cnc5ccccc54)CC3)noc2c1	101	100	–	97	–	83.1	89.6	inhibition [6]: 22.6%
Fc1ccc2ncn(CCCCN3CCN(c4cccc(C(F)(F)F)c4)CC3)c2c1	79.7	–	-7.67	–	34.7	–	–	inhibition [1]: 26.1%
c1ccc2nn(CCCCN3CCN(c4nsc5ccccc45)CC3)nc2c1	100	96.2	–	101	–	78.3	68.8	inhibition [6]: -9.49%
c1ccc2nn(CCCCN3CCN(c4noc5ccccc45)CC3)nc2c1	99	94	–	84.9	–	–	69.5	inhibition [5]: 5.31%
c1ccc2c(c1)ncn2CCCCN1CCN(c2nsc3ccccc23)CC1	99.8	98.9	–	99.6	–	93.4	78	inhibition [6]: 15.4%
Clc1cccc(N2CCN(CCCCn3cnc4ccccc43)CC2)c1Cl	78	–	11.7	55	27	–	–	inhibition [5]: -5.13%
FC(F)(F)c1cccc(N2CCN(CCCCCn3nc4ccccc4n3)CC2)c1	44.8	–	8.76	–	14.8	–	–	inhibition [1]: 14%
Cc1nc2ccccc2n1CCCCN1CCN(c2cccc(C(F)(F)F)c2)CC1	98.9	79.8	6.89	–	–	–	–	inhibition [1]: -5.62%
FC(F)(F)c1cccc(N2CCN(CCCCCCn3nc4ccccc4n3)CC2)c1	–	–	–	–	7.06	–	–	inhibition [1]: 9.94%; inhibition [2]: 30.3%
Fc1ccc2c(N3CCN(CCCn4cnc5ccccc54)CC3)noc2c1	100	98.4	–	98	–	87.3	52.8	inhibition [6]: 24.9%
